Data from patent publication US11279712B2, “Macrocyclic compounds that inhibit MCL-1 protein” (AMGEN INC., priority 2017, dated 2022).
pIC50: −log10 of the molar value. Where two headings read alike, the source gives them in different places.

Legend:
[1] = target: Mcl-1/Bim interaction (recombinant human Mcl-1 residues 171-327) (Homo sapiens (Human), UniProt Q07820); test: Cell Free Mcl-1:Bim Affinity Assay (Mcl-1 HTRF); format: binding; conditions: TR-FRET, 0.1 nM Mcl-1(171-327), 0.05 nM biotin-Bim(51-76)
Mcl-1/Bim interaction (recombinant human Mcl-1 residues 171-327), sequence (Q07820 171-327): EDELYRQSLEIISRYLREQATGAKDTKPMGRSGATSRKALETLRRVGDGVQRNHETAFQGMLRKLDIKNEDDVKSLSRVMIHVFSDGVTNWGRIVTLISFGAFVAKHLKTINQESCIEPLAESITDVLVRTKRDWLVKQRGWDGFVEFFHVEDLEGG
Procedure: Cell Free Mcl-1:Bim Affinity Assay (Mcl-1 HTRF)
The inhibition of the Mcl-1/Bim interaction was measured using a time-resolved fluorescence resonance energy transfer (TR-FRET) assay. The recombinant human Mcl-1 (C-terminally 6×His tagged Mcl-1 containing residues 171-327) was generated at Amgen Inc (Thousand Oaks, Calif.). A biotinylated peptide derived from human Bim (residues 51-76) was purchased from CPC Scientific (San Jose, Calif.). The TR-FRET assay was conducted in a 384-well white OptiPlate™ (PerkinElmer, Waltham, Mass.) in a total volume of 40 μL. The reaction mixture contained 0.1 nM Mcl-1(171-327), 0.05 nM biotin-Bim(51-76), 0.05 nM LANCES Eu-W1024 Anti-6×His (PerkinElmer), 0.072 nM Streptavidin-Xlent (Cisbio, Bedford, Mass.), and serially diluted test compounds in the binding buffer of 20 mM Hepes, pH 7.5, 150 mM NaCl, 0.016 mM Brij®35, and 1 mM dithiothreitol. Test compounds were pre-incubated with Mcl-1(171-327) and biotin-Bim (51-76) for 60 min before addition of the detection mixture (LANCE® Eu-W1024 Anti-6×His and Streptavidin-Xlent). The reaction plates were further incubated overnight and then were read on an Envision® multimode reader (PerkinElmer). Fluorescence signals were measured at 620 nm (40-nm bandwidth) and 665 nm (7.5-nm bandwidth) with a 60 μs delay after excitation at 320 nm (75-nm bandwidth). The signal ratio at 665/620 nm corresponded to the Mcl-1/Bim interaction and was used in all data analyses. The IC50 values of test compounds were determined from duplicate data by analyzing competition curves using a four-parameter sigmoidal model in GraphPad Prism (GraphPad Software, San Diego, Calif.) or in Genedata Screener® (Genedata, Basel, Switzerland).

[2] = system: OPM-2 human multiple myeloma cell line; test: Cell Viability Assay (OPM-2 10 FBS); format: cell-based; conditions: OPM-2 cells, CellTiter-Glo, read-out: OPM-2 10% FBS IC50 IP
Procedure: Cell Viability Assay (OPM-2 10 FBS)
The human multiple myeloma cell line, OPM-2, was cultured in complete growth medium containing RPMI 1640 and 10% fetal bovine serum (FBS). Cells were seeded into 384-well plates at 3000 cells/well density in complete growth medium containing 10% FBS, and incubated for 16 h with serially diluted test compounds in a 37° C. incubator with 5% CO2. Cell viability was tested using CellTiter-Glo® assay (Promega, Madison, Wis.) according to the manufacturer recommendations. Luminescence was determined using an EnVision® Multilabel plate reader 25 min after the addition of detection reagent. IC50 values were then calculated with Xlfit using a logistical 4-parameter fit model in GraphPad Prism (GraphPad Software, San Diego, Calif.) or in Genedata Screener® (Genedata, Basel, Switzerland).

| SMILES | pIC50 [1] | pIC50 ([2]; 16 h) | pIC50 ([2]; Homo sapiens, OPM-2, 16 h) |
| --- | --- | --- | --- |
| C[C@@H]1[C@@H](C)CCC[C@H](CN2CC3(CCCN3C)C2)[C@@H]2CC[C@H]2CN2C[C@@]3(CCCc4cc(Cl)ccc43)COc3ccc(cc32)C(=O)NS1(=O)=O (single isomer, unassigned) [Example 50] | 9.03 | 6.11 | – |
| C[C@@H]1[C@@H](C)CCC[C@H](CN2CC3(CCCN3C)C2)[C@@H]2CC[C@H]2CN2C[C@@]3(CCCc4cc(Cl)ccc43)COc3ccc(cc32)C(=O)NS1(=O)=O (single isomer, unassigned) [Example 16] | 9.50 | 6.55 | – |
| C[C@@H]1[C@@H](C)CCC[C@H](CN2CCOCC2)[C@@H]2CC[C@H]2CN2C[C@@]3(CCCc4cc(Cl)ccc43)COc3ccc(cc32)C(=O)NS1(=O)=O (single isomer, unassigned) [Example 46] | 9.13 | 6.14 | – |
| C[C@@H]1[C@@H](C)C/C=C/[C@H](CN2CCN3CCOC[C@@H]3C2)[C@@H]2CC[C@H]2CN2C[C@@]3(CCCc4cc(Cl)ccc43)COc3ccc(cc32)C(=O)NS1(=O)=O (single isomer, unassigned) [Example 37] | 9.54 | – | 6.35 |
| C[C@@H]1[C@@H](C)CCC[C@H](C(=O)O)[C@@H]2CC[C@H]2CN2C[C@@]3(CCCc4cc(Cl)ccc43)COc3ccc(cc32)C(=O)NS1(=O)=O (single isomer, unassigned) [Example 52] | 9.97 | 6.03 | – |
| CC[C@@H]1CCCC[C@H](CO)[C@@H]2CC[C@H]2CN2C[C@@]3(CCCc4cc(Cl)ccc43)COc3ccc(cc32)C(=O)NS1(=O)=O (single isomer, unassigned) [Example 85] | 9.17 | 5.15 | – |
| C[C@@H]1[C@@H](C)CCC[C@H](CN2CCN3CCN(C)C[C@@H]3C2)[C@@H]2CC[C@H]2CN2C[C@@]3(CCCc4cc(Cl)ccc43)COc3ccc(cc32)C(=O)NS1(=O)=O (single isomer, unassigned) [Example 56] | 9.28 | 5.99 | – |
| C[C@@H]1[C@@H](C)CCC[C@H]([C@H](O)c2ccccc2)[C@@H]2CC[C@H]2CN2C[C@@]3(CCCc4cc(Cl)ccc43)COc3ccc(cc32)C(=O)NS1(=O)=O (single isomer, unassigned) [Example 78] | 8.63 | 4.55 | – |
| C[C@@H]1CS(=O)(=O)NC(=O)c2ccc3c(c2)N(C[C@@H]2CC[C@H]2[C@@H](CO)CC[C@@H]1C)C[C@@]1(CCCc2cc(Cl)ccc21)CO3 (single isomer, unassigned) [Example 84] | 8.46 | 5.23 | – |
| C[C@@H]1[C@@H](C)CCC[C@H](CO)[C@@H]2CC[C@H]2CN2C[C@@]3(CCCc4cc(Cl)ccc43)COc3ccc(cc32)C(=O)NS1(=O)=O (single isomer, unassigned) [Example 23] | 9.74 | 6.52 | – |
| C[C@@H]1[C@@H](C)CCC[C@H](C=O)[C@@H]2CC[C@H]2CN2C[C@@]3(CCCc4cc(Cl)ccc43)COc3ccc(cc32)C(=O)NS1(=O)=O [Example 60] | 9.26 | 5.88 | – |
| COCCN1CCN(C[C@H]2CCC[C@H](C)[C@@H](C)S(=O)(=O)NC(=O)c3ccc4c(c3)N(C[C@@H]3CC[C@@H]23)C[C@@]2(CCCc3cc(Cl)ccc32)CO4)CCC1=O (stereo in doubt) [Example 36] | 9.58 | – | 6.35 |
| CC(=O)N1CCN(C[C@H]2CCC[C@H](C)[C@@H](C)S(=O)(=O)NC(=O)c3ccc4c(c3)N(C[C@@H]3CC[C@@H]23)C[C@@]2(CCCc3cc(Cl)ccc32)CO4)CC1 (single isomer, unassigned) [Example 22] | 9.43 | – | 6.52 |
| C[C@@H]1[C@@H](C)CCC[C@H](CN2CCOCC2)[C@@H]2CC[C@H]2CN2C[C@@]3(CCCc4cc(Cl)ccc43)COc3ccc(cc32)C(=O)NS1(=O)=O (stereo in doubt) [Example 55] | 9.07 | 5.99 | – |
| C[C@@H]1[C@@H](C)CCC[C@@H]([C@@H](O)C(F)(F)F)[C@@H]2CC[C@H]2CN2C[C@@]3(CCCc4cc(Cl)ccc43)COc3ccc(cc32)C(=O)NS1(=O)=O (single isomer, unassigned) [Example 87] | 7.88 | 5.00 | – |
| C[C@@H]1[C@@H](C)CCC[C@H](CN2CC(N(C)C)C2)[C@@H]2CC[C@H]2CN2C[C@@]3(CCCc4cc(Cl)ccc43)COc3ccc(cc32)C(=O)NS1(=O)=O (stereo in doubt) [Example 18] | 9.08 | 6.54 | – |
| C[C@@H]1[C@@H](C)CCC[C@H]([C@H](O)C2CCN(C)CC2)[C@@H]2CC[C@H]2CN2C[C@@]3(CCCc4cc(Cl)ccc43)COc3ccc(cc32)C(=O)NS1(=O)=O (single isomer, unassigned) [Example 83] | 9.26 | 5.37 | – |
| C[C@H]([C@H]1CCC[C@H](C)[C@@H](C)S(=O)(=O)NC(=O)c2ccc3c(c2)N(C[C@@H]2CC[C@H]21)C[C@@]1(CCCc2cc(Cl)ccc21)CO3)N1CCOCC1 (single isomer, unassigned) [Example 79] | 8.80 | 5.52 | – |
| C[C@@H]1[C@@H](C)CCC[C@@H]([C@@H](O)c2ccccc2)[C@@H]2CC[C@H]2CN2C[C@@]3(CCCc4cc(Cl)ccc43)COc3ccc(cc32)C(=O)NS1(=O)=O (single isomer, unassigned) [Example 88] | 7.94 | < 4.48 | – |
| C[C@@H]1[C@@H](C)C/C=C/[C@H](CN2CCOCC2)[C@@H]2CC[C@H]2CN2C[C@@]3(CCCc4cc(Cl)ccc43)COc3ccc(cc32)C(=O)NS1(=O)=O (stereo in doubt) [Example 62] | 9.41 | – | 5.84 |
| C[C@H]1CCC[C@H](CO)[C@@H]2CC[C@H]2CN2C[C@@]3(CCCc4cc(Cl)ccc43)COc3ccc(cc32)C(=O)NS(=O)(=O)C1 (single isomer, unassigned) [Example 82] | 9.11 | 5.44 | – |
| C[C@@H]1[C@@H](C)CCC[C@@H]([C@H](O)C(F)(F)F)[C@@H]2CC[C@H]2CN2C[C@@]3(CCCc4cc(Cl)ccc43)COc3ccc(cc32)C(=O)NS1(=O)=O (single isomer, unassigned) [Example 66] | 8.14 | 5.80 | – |
| COC[C@H]1CCC[C@H](C)[C@@H](C)S(=O)(=O)NC(=O)c2ccc3c(c2)N(C[C@@H]2CC[C@@H]12)C[C@@]1(CCCc2cc(Cl)ccc21)CO3 (single isomer, unassigned) [Example 80] | 8.79 | – | 5.45 |
| C[C@@H]1[C@@H](C)CCC[C@H](C(=O)N2CC(F)(F)C2)[C@@H]2CC[C@H]2CN2C[C@@]3(CCCc4cc(Cl)ccc43)COc3ccc(cc32)C(=O)NS1(=O)=O (single isomer, unassigned) [Example 38] | 9.29 | – | 6.28 |
| C[C@@H]1[C@@H](C)CCC[C@H](CN2CCN3CCOC[C@H]3C2)[C@@H]2CC[C@H]2CN2C[C@@]3(CCCc4cc(Cl)ccc43)COc3ccc(cc32)C(=O)NS1(=O)=O (single isomer, unassigned) [Example 31] | 9.58 | 6.42 | – |
| C[C@@H]1[C@@H](C)CCC[C@H](CN2CC(C)(N(C)C)C2)[C@@H]2CC[C@H]2CN2C[C@@]3(CCCc4cc(Cl)ccc43)COc3ccc(cc32)C(=O)NS1(=O)=O (stereo in doubt) [Example 27] | 9.08 | 6.45 | – |
| C[C@@H]1[C@@H](C)CCC[C@@H]([C@H](O)C(F)(F)F)[C@@H]2CC[C@H]2CN2C[C@@]3(CCCc4cc(Cl)ccc43)COc3ccc(cc32)C(=O)NS1(=O)=O (single isomer, unassigned) [Example 86] | 7.56 | 5.03 | – |
| CC(=O)N1CCN2CCN(C[C@H]3CCC[C@H](C)[C@@H](C)S(=O)(=O)NC(=O)c4ccc5c(c4)N(C[C@@H]4CC[C@@H]34)C[C@@]3(CCCc4cc(Cl)ccc43)CO5)C[C@H]2C1 (single isomer, unassigned) [Example 15] | 9.73 | 6.56 | – |
